Experimental data published in US9309213B2, “C-3 substituted bicyclooctane based HIV protease inhibitors” (Purdue Research Foundation, priority 2011, dated 2016).
Several values for one entry are separate records, joined by “and”; a condition that tells them apart may be missing. Identical values can stand only once. Like-named read-outs stand apart in the source and are kept apart here.

What was measured:
HIV-1LAI = assay: In vitro antiviral assay, MT-2 cells exposed to HIV-1LAI, MTT assay; format: cell-based; settings: for loss of antiviral activity (higher IC50) compared to 22: relative to inhibitor 22
HIV-1 protease = molecular target: T1, HIV-1 protease (Human immunodeficiency virus type 1 group M subtype B, UniProt P04585); assay: HIV-1 protease enzyme inhibitory assay (protocol of Toth and Marshall); format: biochemical
T1 construct: The HIV aspartic protease plays a central role in the life cycle of the virus; It cleaves the virally encoded polyprotein
From the text: Inhibitors were designed to make additional interactions in the S2-subsite of the protease, especially with the Gly48 backbone atoms in the flap region of the enzyme. All inhibitors in Table 1 were first evaluated in the enzyme inhibitory assay developed by Toth and Marshall (Toth and Marshall, Int. J. Pept. Protein Res. 1990, 36, 544-550). […] The 3-(S)-hydroxy Cp-THF ligand was also investigated in combination with other sulfonamide substituents.
All inhibitors were first tested for their enzyme inhibitory potency using the assay protocol developed by Toth and Marshall.

[1] = system: HIV-1ERS104pre (wild type); assay: Antiviral assay in PHA-PBMs, inhibition of p24 Gag protein production, wild-type isolate; format: cell-based
HIV-1MDR/G = assay: microbe, parasite or virus in culture; format: cell-based; settings: for IC50: Human immunodeficiency virus 1, read-out: IC50 ± SDs
HIV-1MDR/B = assay: microbe, parasite or virus in culture; format: cell-based; settings: for IC50: Human immunodeficiency virus 1, read-out: IC50 ± SDs
HIV-1MDR/TM = assay: microbe, parasite or virus in culture; format: cell-based; settings: for IC50: Human immunodeficiency virus 1, read-out: IC50 ± SDs
HIV-1MDR/C = assay: microbe, parasite or virus in culture; format: cell-based; settings: for IC50: Human immunodeficiency virus 1, read-out: IC50 ± SDs
[2] = Human immunodeficiency virus 1, MT2, read-out: ID50, Table 2, antiviral activity
[3] = Human immunodeficiency virus 1, MT2, Table 1, MT-2 cells, 100 TCID50s of HIV-1LAI, MTT assay, means of at least two experiments
[4] = Human immunodeficiency virus 1, MT2, read-out: antiviral IC50
[5] = read-out: Ki / enzyme inhibitory potency

For `CON[C@@H]1CO[C@@H]2C[C@H](OC(=O)N[C@@H](Cc3ccccc3)[C@H](O)CN(CC(C)C)S(=O)(=O)c3ccc(OC)cc3)C[C@H]12`, the IC50 (HIV-1LAI; [2]) was 81.5 nM and the Ki (HIV-1 protease; Table 2, read-out: Ki) was 0.088 nM.

`COc1ccc(S(=O)(=O)N(CC(C)C)C[C@@H](O)[C@H](Cc2ccccc2)NC(=O)O[C@@H]2C[C@@H]3[C@H](N(C)C)CO[C@@H]3C2)cc1` gave a Ki (HIV-1 protease; Table 2, read-out: Ki) of 12.7 nM.

For `COc1ccc(S(=O)(=O)N(CC(C)C)C[C@@H](O)[C@H](Cc2ccccc2)NC(=O)O[C@@H]2C[C@H]3[C@@H](C2)OC[C@H]3OC(=O)N(C)C)cc1`, the IC50 (HIV-1LAI; [2]) was 4.7 nM and the Ki (HIV-1 protease; Table 2, read-out: Ki) was 0.02 nM.

In the case of `CC(C)CN(C[C@@H](O)[C@H](Cc1ccccc1)NC(=O)O[C@H]1CCOC1)S(=O)(=O)c1ccc(N)cc1` [APV, amprenavir, reference compound], the IC50 ([1]; Human immunodeficiency virus 1, Table 3, HIV-1ERS104pre (wild type), PHA-PBMs, p24 Gag, read-out: IC50 ± SDs) is reported as 30 ± 6 nM, the IC50 (HIV-1MDR/G) is reported as 380 ± 30 nM and the “fold change of IC50” value (HIV-1MDR/G; Table 3, HIV-1MDR/G compared to wild-type HIV-1ERS104pre) is reported as 12. For the same compound, the IC50 (HIV-1MDR/B) was 930 ± 280 nM, the “fold change of IC50” value (HIV-1MDR/B; Table 3, HIV-1MDR/B compared to wild-type HIV-1ERS104pre) was 31 and the IC50 (HIV-1MDR/TM) was 190 ± 60 nM. The “fold change of IC50” value (HIV-1MDR/TM; Table 3, HIV-1MDR/TM compared to wild-type HIV-1ERS104pre) was 6, the IC50 (HIV-1MDR/C) was 260 ± 30 nM and the “fold change of IC50” value (HIV-1MDR/C; Table 3, HIV-1MDR/C compared to wild-type HIV-1ERS104pre) was 9.

`COc1ccc(S(=O)(=O)N(CC(C)C)C[C@@H](O)[C@H](Cc2ccccc2)NC(=O)O[C@@H]2C[C@@H]3C(=O)CO[C@@H]3C2)cc1` [Inhibitor 19a, (3aS,5R,6aR)-3-oxohexahydro-2H-cyclopenta[b]furan-5-yl (2S,3R)-3-hydroxy-4-(N-isobutyl-4-methoxyphenylsulfonamido)-1-phenylbutan-2-ylcarbamate] gave an IC50 (HIV-1LAI; Human immunodeficiency virus 1, MT2, Table 1, MT-2 cells, 100 TCID50s of HIV-1LAI, MTT assay, means of at least two experiments, read-out: IC50) of 14 nM and a Ki (HIV-1 protease; Table 1, read-out: Ki) of 0.95 nM.

For `COc1ccc(S(=O)(=O)N(CC(C)C)C[C@@H](O)[C@H](Cc2ccccc2)NC(=O)O[C@@H]2C[C@@H]3[C@H](OC)CO[C@@H]3C2)cc1` [Inhibitor 19b, (3S,3aS,5R,6aR)-3-Methoxyhexahydro-2H-cyclopenta[b]furan-5-yl [(2S,3R)-3-Hydroxy-4-(N-iso-butyl-4-methoxyphenylsulfonamido)-1-phenylbutan-2-yl]carbamate], the IC50 (HIV-1LAI; [3]) was 37 nM, the IC50 (HIV-1LAI; [4]) was 37 nM and the “loss of antiviral activity (higher IC50) compared to 22” value (from here on “loss … compared to 22”) (HIV-1LAI) was ~5 fold and ~7 fold. The Ki (HIV-1 protease; Table 1, read-out: Ki) was 0.39 nM and the Ki (HIV-1 protease; read-out: Ki) was 0.95 nM.

With `COc1ccc(S(=O)(=O)N(CC(C)C)C[C@@H](O)[C@H](Cc2ccccc2)NC(=O)O[C@@H]2C[C@@H]3[C@H](C)CO[C@@H]3C2)cc1` [Inhibitor 19e, (3S,3aR,5R,6aR)-3-Methylhexahydro-2H-cyclopenta[b]furan-5-yl [(2S,3R)-3-Hydroxy-4-(N-iso-butyl-4-methoxyphenylsulfonamido)-1-phenylbutan-2-yl]carbamate] the IC50 (HIV-1LAI; [3]) was 25 nM, the “loss … compared to 22” value (HIV-1LAI) was 5 fold and the Ki (HIV-1 protease; Table 1, read-out: Ki) was 0.02 nM and 0.16 nM.

In the case of `COc1ccc(S(=O)(=O)N(CC(C)C)C[C@@H](O)[C@H](Cc2ccccc2)NC(=O)O[C@@H]2C[C@@H]3[C@@H](C)CO[C@@H]3C2)cc1` [Inhibitor 19f, (3R,3aR,5R,6aR)-3-Methylhexahydro-2H-cyclopenta[b]furan-5-yl [(2S,3R)-3-Hydroxy-4-(N-isobutyl-4-methoxyphenylsulfonamido)-1-phenylbutan-2-yl]carbamate], the Ki (HIV-1 protease; Table 1, read-out: Ki) is reported as 0.017 nM.

`COc1ccc(S(=O)(=O)N(CC(C)C)C[C@@H](O)[C@H](Cc2ccccc2)NC(=O)O[C@@H]2C[C@@H]3[C@H](NC(C)=O)CO[C@@H]3C2)cc1` [Inhibitor 19g, (3S,3aR,5R,6aR)-3-acetamidohexahydro-2H-cyclopenta[b]furan-5-yl (2S,3R)-3-hydroxy-4-(N-isobutyl-4-methoxyphenylsulfonamido)-1-phenylbutan-2-yl-carbamate] was tested, and the IC50 (HIV-1LAI; [2]) was 21.5 nM, the IC50 (HIV-1LAI; [4]) was 25 nM and the Ki (HIV-1 protease; [5]) was 0.007 nM.

With `COc1ccc(S(=O)(=O)N(CC(C)C)C[C@@H](O)[C@H](Cc2ccccc2)NC(=O)O[C@@H]2C[C@@H]3[C@@H](NC(C)=O)CO[C@@H]3C2)cc1` [Inhibitor 19h, (3′R,3′aR,5′R,6′aR)-3-acetamidohexahydro-2H-cyclopenta[b]furan-5-yl (2S,3R)-3-hydroxy-4-(N-isobutyl-4-methoxyphenylsulfonamido)-1-phenylbutan-2-yl-carbamate] the IC50 (HIV-1LAI; [2]) was 31 nM, the IC50 (HIV-1LAI; [4]) was 31 nM and the Ki (HIV-1 protease; Table 2, read-out: Ki) was 0.0075 nM. For the same compound, the Ki (HIV-1 protease; [5]) was 0.007 nM.

`COc1ccc(S(=O)(=O)N(CC(C)C)C[C@@H](O)[C@H](Cc2ccccc2)NC(=O)O[C@@H]2C[C@@H]3[C@H](NS(C)(=O)=O)CO[C@@H]3C2)cc1` [Inhibitor 19i, (3S,3aR,5R,6aR)-3-(methylsulfonamido)hexahydro-2H-cyclopenta[b]furan-5-yl ((2S,3R)-3-hydroxy-4-(N-isobutyl-4-methoxyphenylsulfonamido)-1-phenylbutan-2-yl)-carbamate] was tested, and the IC50 (HIV-1LAI; [2]) was 28 nM and the Ki (HIV-1 protease; Table 2, read-out: Ki) was 0.017 nM and 0.032 nM.

In the case of `COc1ccc(S(=O)(=O)N(CC(C)C)C[C@@H](O)[C@H](Cc2ccccc2)NC(=O)O[C@@H]2C[C@@H]3[C@@H](NS(C)(=O)=O)CO[C@@H]3C2)cc1` [Inhibitor 19j, (3R,3aR,5R,6aR)-3-(methylsulfonamido)hexahydro-2H-cyclopenta[b]furan-5-yl ((2S,3R)-3-hydroxy-4-(N-isobutyl-4-methoxyphenylsulfonamido)-1-phenylbutan-2-yl) carbamate], the IC50 (HIV-1LAI; [2]) is reported as 50 nM and the Ki (HIV-1 protease; Table 2, read-out: Ki) is reported as 0.18 nM.

`COc1ccc(S(=O)(=O)N(CC(C)C)C[C@@H](O)[C@H](Cc2ccccc2)NC(=O)O[C@@H]2C[C@@H]3[C@H](O)CO[C@@H]3C2)cc1` [Inhibitor 22, (3S,3aR,5R,6aR)-3-hydroxyhexahydro-2H-cyclopenta[b]furan-5-yl (2S,3R)-3-hydroxy-4-(4-(methoxy)-N-isobutylphenylsulfonamido)-1-phenylbutan-2-ylcarbamate] was tested, and the IC50 ([1]; Human immunodeficiency virus 1) was 20 nM, the IC50 ([1]; Human immunodeficiency virus 1, read-out: IC50 ± SDs) was 20 ± 4 nM and the IC50 (HIV-1MDR/G) was 270 ± 20 nM. The IC50 (HIV-1MDR/B) was > 1000 nM, the IC50 (HIV-1LAI; [3]) was 5 nM and the IC50 (HIV-1LAI; [4]) was 5 nM. For the same compound, the IC50 (HIV-1LAI; Table 1, MT-2 cells, 100 TCID50s of HIV-1LAI, MTT assay, means of at least two experiments) was 7 nM, the IC50 (HIV-1MDR/TM) was 41 ± 4 nM and the IC50 (HIV-1MDR/C) was > 1000 nM.

`CC(C)CN(C[C@@H](O)[C@H](Cc1ccccc1)NC(=O)O[C@@H]1C[C@@H]2[C@H](O)CO[C@@H]2C1)S(=O)(=O)c1ccc(CO)cc1` [Inhibitor 23, (3S,3aR,5R,6aR)-3-Hydroxyhexahydro-2H-cyclopenta[b]furan-5-yl {(2S,3R)-3-Hydroxy-4-[4-(hydroxymethyl)-N-iso-butylphenylsulfonamido]-1-phenylbutan-2-yl}carbamate] was tested, and the IC50 (HIV-1LAI; [3]) was 19 nM, the “loss … compared to 22” value (HIV-1LAI) was 4 fold and the Ki (HIV-1 protease; Table 1, read-out: Ki) was 0.06 nM.

With `CC(C)CN(C[C@@H](O)[C@H](Cc1ccccc1)NC(=O)O[C@@H]1C[C@@H]2[C@@H](O)CO[C@@H]2C1)S(=O)(=O)c1ccc(N)cc1` [Inhibitor 26, (3R,3aR,5R,6aR)-3-Hydroxyhexahydro-2H-cyclopenta[b]furan-5-yl [(2S,3R)-4-(4-Amino-N-iso-butylphenylsulfonamido)-3-hydroxy-1-phenylbutan-2-yl]-carbamate] the IC50 (HIV-1LAI; [3]) was 36 nM and the Ki (HIV-1 protease; Table 1, read-out: Ki) was 0.006 nM.

For `CC(C)CN(C[C@@H](O)[C@H](Cc1ccccc1)NC(=O)O[C@@H]1C[C@@H]2[C@H](O)CO[C@@H]2C1)S(=O)(=O)c1ccc(N)cc1` [Inhibitor 123, (3S,3aR,5R,6aR)-3-Hydroxyhexahydro-2H-cyclopenta[b]furan-5-yl [(2S,3R)-4-(4-Amino-N-isobutylphenylsulfonamido)-3-hydroxy-1-phenylbutan-2-yl]carbamate], the “loss … compared to 22” value (HIV-1LAI) was 3 fold.

`CC(C)(C)NC(=O)[C@@H]1C[C@@H]2CCCC[C@@H]2CN1C[C@@H](O)[C@H](Cc1ccccc1)NC(=O)[C@H](CC(N)=O)NC(=O)c1ccc2ccccc2n1` [SQV, saquinavir, reference compound] showed an IC50 (HIV-1LAI; [3]) of 15 nM.

With `CC(C)CN(C[C@@H](O)[C@H](Cc1ccccc1)NC(=O)O[C@@H]1C[C@@H]2[C@H](O)CO[C@@H]2C1)S(=O)(=O)c1ccc(N)cc1` [drawing 10] the IC50 (HIV-1LAI; [3]) was 25 nM and the Ki (HIV-1 protease; Table 1, read-out: Ki) was 0.079 nM.

For `COC(=O)N[C@@H]1CO[C@@H]2C[C@H](OC(=O)N[C@@H](Cc3ccccc3)[C@H](O)CN(CC(C)C)S(=O)(=O)c3ccc(OC)cc3)C[C@H]12` [drawing 23], the IC50 (HIV-1LAI; [2]) was 1.6 nM.

`COC(=O)N[C@H]1CO[C@@H]2C[C@H](OC(=O)N[C@@H](Cc3ccccc3)[C@H](O)CN(CC(C)C)S(=O)(=O)c3ccc(OC)cc3)C[C@H]12` [drawing 24] showed an IC50 (HIV-1LAI; [2]) of 4.6 nM and a Ki (HIV-1 protease; Table 2, read-out: Ki) of 0.004 nM.

Compound “((3R,3aS,5R,6aR)-3-Methoxyhexahydro-2H-cyclopenta[b]furan-5-yl [(2S,3R)-3-Hydroxy-4-(N-iso-butyl-4-methoxyphenylsulfonamido)-1-phenylbutan-2-yl]-carbamate [Inhibitor 19d]” has an IC50 (HIV-1LAI; Table 1, MT-2 cells, 100 TCID50s of HIV-1LAI, MTT assay, means of at least two experiments, read-out: IC50) of 3.4 nM and a Ki (HIV-1 protease; [5]) of 0.006 nM.
